Holding throughout (assay): growth of human tumour cells (NCI), 48 h
For assay [1], the system named is T-47D breast.
The test system of assay [2] is SF-539 CNS.
Assay [3] relates to HCT-15 colon.
The subject of assay [4] is UO-31 renal.
Assay [5] has as its system SNB-19 CNS.
Assay [6] concerns MOLT-4 leukemia.
The test system of assay [7] is CCRF-CEM leukemia.
Assay [8] relates to SNB-75 CNS.
Assay [9] has as its system UACC-257 melanoma.
Assay [10] relates to A498 renal.

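Method: 48-hour compound exposure of cells in 96-well plates, five concentrations, linear interpolation of endpoints. Here, GI50 denotes the concentration required for 50% inhibition of growth. TGI denotes the concentration required for complete inhibition of growth.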

With `CCCc1cc(=O)n2c(C(=O)Nc3ccc(Cl)cc3C)c(C(=O)Nc3ccc(F)cc3)sc2n1`, the GI50 in [1] is 20 µM; in assay [2], 6.02 µM; in assay [3], 9.4 µM; in [4], 7.35 µM; in assay [5] it was 23.8 µM; in assay [6] it was 3.99 µM. The GI50 in [7] is 16.4 µM; in assay [8] it was 3.71 µM; in [9], 7.56 µM; in assay [10], 29.2 µM. The TGI in assay [1] is 132 µM; in [2], 22.7 µM; in assay [3], more than 150 µM; in assay [4], 30.4 µM; in assay [5] it was 74.2 µM; in [6], 22.2 µM. The TGI is 103 µM in [7], 11.5 µM in assay [8], 42.4 µM in assay [9] and 99.8 µM in [10].
In the case of `CCN(CC)CCCCCCNc1cccc2cc(Br)cnc12`, the GI50 in assay [1] is 5.31 µM; in assay [2] it was 6.47 µM; in assay [3] it was 2.95 µM; in [4], 3.15 µM; in assay [5] it was 5.77 µM; in [6] it was 3.06 µM. Besides, the GI50 in assay [7] was 3.13 µM; in assay [8] it was 2.82 µM; in assay [9] it was 3.28 µM; in assay [10] it was 4.28 µM. Also, the TGI in [1] amounted to 20 µM; in [2] it was 20.8 µM; in [3], 10.9 µM; in [4], 15 µM; in assay [5] it was 22.6 µM; in assay [6] it was 12.1 µM. Moreover, the TGI in assay [7] worked out at 11.2 µM; in [8] it was 9.17 µM; in assay [9] it was 9.36 µM; in assay [10] it was 21.3 µM.
As for `C=CC(=O)N1CN(C(=O)C=C)CN(C(=O)C=C)C1`, the GI50 is 2.32 µM in assay [1]; 2.98 µM in assay [2]; 2.01 µM in assay [3]; 2.19 µM in assay [4]; 33.1 µM in [5]; 2.71 µM in assay [6]. Also, the GI50 was 2.82 µM in assay [7], 8.9 µM in assay [8], 1.82 µM in assay [9] and 15.3 µM in [10]. For the same compound, the TGI in [1] is 12.8 µM; in assay [2], 48.3 µM; in assay [3] it was 4.68 µM; in [4], 8.53 µM; in [5], more than 100 µM; in [6] it was 8.05 µM. The TGI is 9.78 µM in assay [7], more than 100 µM in [8], 4.59 µM in assay [9] and 32.4 µM in assay [10].
Regarding `ClCCN(CCCl)c1ccc(CNc2ccccc2)cc1`, the GI50 is 5.91 µM in assay [1]; 3.21 µM in [2]; 10.4 µM in assay [3]; 4.86 µM in assay [4]; 19 µM in assay [5]; 2.81 µM in [6]. The GI50 in assay [7] is 4.12 µM; in assay [8], 3.7 µM; in [9], 12.7 µM; in [10] it was 6.32 µM. For the same compound, the TGI in assay [1] is more than 100 µM; in assay [2], 24.2 µM; in [3] it was more than 100 µM; in assay [4], 42.3 µM; in [5], more than 100 µM; in assay [6], more than 100 µM. For the same compound, the TGI was more than 100 µM in assay [7], 57.4 µM in assay [8], more than 100 µM in assay [9] and 24.3 µM in [10].
Regarding `O=C1CCCN1c1ccccc1I(=O)=O`, the GI50 was 91.4 µM in assay [1]; more than 100 µM in assay [2]; more than 100 µM in assay [3]; more than 100 µM in assay [4]; more than 100 µM in assay [5]; more than 100 µM in assay [6]. The GI50 in assay [7], in assay [8], in assay [9] and in assay [10] was more than 100 µM each time. Moreover, the TGI in assay [1], in assay [2], in [3], in assay [4], in assay [5] and in assay [6] was more than 100 µM each time. In addition, the TGI in assay [7], in assay [8], in [9] and in assay [10] was more than 100 µM throughout.
For the compound `Nc1cc2c(cc1Br)[nH]c(=O)c1ccccc12`, the GI50 is 4.22 µM in assay [1]; 15.1 µM in assay [2]; 4.79 µM in [3]; 2.73 µM in assay [4]; 5.25 µM in [5]; 4.03 µM in [6]. For the same compound, the GI50 in assay [7] was 6.82 µM; in assay [8], 2.66 µM; in assay [9], 4.13 µM; in [10], 3.91 µM. Besides, the TGI is 55.8 µM in [1]; 49.3 µM in [2]; 20.8 µM in assay [3]; 18.5 µM in assay [4]; 20.2 µM in assay [5]; 43 µM in assay [6]. Further, the TGI in [7] amounted to 59.5 µM; in assay [8], 11.9 µM; in assay [9] it was 17.1 µM; in assay [10] it was 29.8 µM.
Turning to `NNCCc1ccc(NC(=O)CCCc2ccc(C(=O)Nc3ccccc3N)cc2)cc1`, the GI50 in assay [1] is 4.34 µM; in assay [2], 9.57 µM; in assay [3] it was 45.6 µM; in assay [4] it was 4.8 µM; in [5], 63.1 µM; in assay [6], 3.22 µM. Also, the GI50 was 3.35 µM in assay [7], 32.8 µM in [8] and 6.54 µM in assay [10]. For the same compound, the TGI in [1] was more than 100 µM; in assay [2], more than 100 µM; in assay [3] it was more than 100 µM; in assay [4], 53.6 µM; in assay [5] it was more than 100 µM; in [6] it was 26.8 µM. The results for the TGI in assay [7], in [8] and in assay [10] were more than 100 µM, more than 100 µM and 28.5 µM, respectively.

These data come from PubChem BioAssay (NCI).
